Source: PubChem BioAssay (NCI)
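48-hour exposure; five concentrations; linearly interpolated endpoints. At the TGI there is no net growth.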

Experiments:
Experiment in all cases: DTP human tumour cell line panel, 48 h
[1] = system: SK-MEL-28 melanoma
[2] = system: OVCAR-8 ovarian
[3] = system: BT-549 breast
[4] = system: T-47D breast
[5] = system: OVCAR-5 ovarian
[6] = system: CCRF-CEM leukemia
[7] = system: SF-268 CNS
[8] = system: UACC-62 melanoma
[9] = system: HCT-15 colon
[10] = system: NCI-H226 lung
[11] = system: MCF7 breast
[12] = system: CAKI-1 renal
[13] = system: HS 578T breast
[14] = system: UACC-257 melanoma
[15] = system: UO-31 renal
[16] = system: IGROV1 ovarian
[17] = system: HL-60(TB) leukemia
[18] = system: SNB-19 CNS
[19] = system: HCT-116 colon
[20] = system: COLO 205 colon
[21] = system: MDA-MB-435
[22] = system: NCI/ADR-RES ovarian
[23] = system: OVCAR-4 ovarian
[24] = system: MDA-MB-231 breast
[25] = system: HOP-62 NSCLC
[26] = system: DU-145 prostate
[27] = system: K-562 leukemia
[28] = system: SF-295 CNS
[29] = system: HT29 colon
[30] = system: SK-MEL-5 melanoma
[31] = system: NCI-H460 lung
[32] = system: NCI-H522 lung
[33] = system: A549 NSCLC
[34] = system: RXF 393 renal
[35] = system: MOLT-4 leukemia
[36] = system: MDA-N
[37] = system: U251 CNS
[38] = system: SNB-75 CNS
[39] = system: ACHN renal
[40] = system: LOX IMVI melanoma
[41] = system: RPMI-8226 leukemia
[42] = system: OVCAR-3 ovarian
[43] = system: SN12C renal
[44] = system: PC-3 prostate
[45] = system: M14 melanoma
[46] = system: KM12 colon
[47] = system: SR leukemia
[48] = system: TK-10 renal
[49] = system: 786-0 renal
[50] = system: EKVX NSCLC
[51] = system: SK-OV-3 ovarian
[52] = system: NCI-H23 lung
[53] = system: MALME-3M melanoma
[54] = system: HCC-2998 colon
[55] = system: SK-MEL-2 melanoma
[56] = system: SW-620 colon
[57] = system: SF-539 CNS
[58] = system: HOP-92 NSCLC
[59] = system: A498 renal

S=C1Nc2ccccc2SC1c1ccccc1 (stereo not given)
TGI [1]: > 100 µM
TGI [2]: > 100 µM
TGI [3]: > 100 µM
TGI [4]: > 100 µM
TGI [5]: > 100 µM
TGI [6]: > 100 µM
TGI [7]: > 100 µM
TGI [8]: > 100 µM
TGI [9]: > 100 µM
TGI [10]: > 100 µM
TGI [11]: > 100 µM
TGI [12]: > 100 µM
TGI [13]: 83.2 µM
TGI [14]: > 100 µM
TGI [15]: > 100 µM
TGI [16]: > 100 µM
TGI [17]: > 100 µM
TGI [18]: > 100 µM
TGI [19]: > 100 µM
TGI [20]: > 100 µM
TGI [21]: > 100 µM
TGI [22]: > 100 µM
TGI [23]: > 100 µM
TGI [24]: > 100 µM
TGI [25]: 55.2 µM
TGI [26]: > 100 µM
TGI [27]: > 100 µM
TGI [28]: > 100 µM
TGI [29]: > 100 µM
TGI [30]: > 100 µM
TGI [31]: > 100 µM
TGI [32]: > 100 µM
TGI [33]: > 100 µM
TGI [34]: 92.5 µM
TGI [35]: > 100 µM
TGI [36]: > 100 µM
TGI [37]: > 100 µM
TGI [38]: 71.3 µM
TGI [39]: > 100 µM
TGI [40]: > 100 µM
TGI [41]: > 100 µM
TGI [42]: > 100 µM
TGI [43]: > 100 µM
TGI [44]: > 100 µM
TGI [45]: > 100 µM
TGI [46]: > 100 µM
TGI [47]: > 100 µM
TGI [48]: > 100 µM
TGI [49]: > 100 µM
TGI [50]: > 100 µM
TGI [51]: > 100 µM
TGI [52]: > 100 µM
TGI [53]: > 100 µM

COc1cc(Br)cc2cc(-c3cn4ccsc4n3)c(=O)oc12
TGI [1]: > 100 µM
TGI [2]: > 100 µM
TGI [3]: 50.7 µM
TGI [54]: 24 µM
TGI [4]: > 100 µM
TGI [5]: > 100 µM
TGI [55]: > 100 µM
TGI [6]: > 100 µM
TGI [7]: > 100 µM
TGI [8]: 75.9 µM
TGI [9]: > 100 µM
TGI [11]: 38.6 µM
TGI [12]: > 100 µM
TGI [13]: > 100 µM
TGI [14]: > 100 µM
TGI [15]: > 100 µM
TGI [16]: > 100 µM
TGI [17]: > 100 µM
TGI [18]: > 100 µM
TGI [19]: > 100 µM
TGI [20]: > 100 µM
TGI [21]: 51.2 µM
TGI [22]: > 100 µM
TGI [23]: > 100 µM
TGI [24]: 80.9 µM
TGI [25]: > 100 µM
TGI [26]: > 100 µM
TGI [27]: > 100 µM
TGI [28]: 76.6 µM
TGI [29]: > 100 µM
TGI [30]: 49.9 µM
TGI [31]: > 100 µM
TGI [32]: > 100 µM
TGI [33]: > 100 µM
TGI [34]: 75.7 µM
TGI [35]: > 100 µM
TGI [36]: 42.2 µM
TGI [37]: > 100 µM
TGI [38]: > 100 µM
TGI [39]: > 100 µM
TGI [40]: > 100 µM
TGI [41]: > 100 µM
TGI [42]: > 100 µM
TGI [56]: > 100 µM
TGI [43]: > 100 µM
TGI [44]: > 100 µM
TGI [45]: > 100 µM
TGI [46]: 56.5 µM
TGI [47]: > 100 µM
TGI [48]: > 100 µM
TGI [49]: > 100 µM
TGI [50]: > 100 µM
TGI [51]: > 100 µM
TGI [52]: > 100 µM
TGI [53]: > 100 µM
TGI [57]: > 100 µM
TGI [58]: 71.9 µM

C[C@@H](NC(=O)[C@@H]1C[C@]1(C)COC(=O)c1cc([N+](=O)[O-])cc([N+](=O)[O-])c1)c1cccc2ccccc12
TGI [1]: > 100 µM
TGI [2]: > 100 µM
TGI [3]: > 100 µM
TGI [54]: > 100 µM
TGI [4]: > 100 µM
TGI [5]: > 100 µM
TGI [55]: > 100 µM
TGI [6]: > 100 µM
TGI [7]: > 100 µM
TGI [8]: > 100 µM
TGI [9]: > 100 µM
TGI [10]: > 100 µM
TGI [11]: > 100 µM
TGI [12]: > 100 µM
TGI [13]: > 100 µM
TGI [14]: > 100 µM
TGI [15]: > 100 µM
TGI [16]: > 100 µM
TGI [59]: > 100 µM
TGI [18]: > 100 µM
TGI [19]: > 100 µM
TGI [20]: > 100 µM
TGI [21]: > 100 µM
TGI [22]: > 100 µM
TGI [23]: > 100 µM
TGI [24]: > 100 µM
TGI [25]: > 100 µM
TGI [26]: > 100 µM
TGI [27]: > 100 µM
TGI [28]: > 100 µM
TGI [29]: > 100 µM
TGI [30]: > 100 µM
TGI [31]: > 100 µM
TGI [33]: > 100 µM
TGI [34]: > 100 µM
TGI [35]: > 100 µM
TGI [36]: > 100 µM
TGI [37]: > 100 µM
TGI [38]: > 100 µM
TGI [39]: > 100 µM
TGI [40]: > 100 µM
TGI [41]: > 100 µM
TGI [42]: > 100 µM
TGI [56]: > 100 µM
TGI [43]: > 100 µM
TGI [44]: > 100 µM
TGI [45]: > 100 µM
TGI [46]: > 100 µM
TGI [47]: > 100 µM
TGI [48]: > 100 µM
TGI [49]: > 100 µM
TGI [50]: > 100 µM
TGI [51]: > 100 µM
TGI [52]: > 100 µM
TGI [53]: 51 µM
TGI [58]: > 100 µM

COc1cc2c(c3oc4c(O)cccc4c(=O)c13)CC(C(C)(O)CO)O2 (stereo not given)
TGI [1]: > 100 µM
TGI [2]: > 100 µM
TGI [3]: > 100 µM
TGI [54]: > 100 µM
TGI [4]: > 100 µM
TGI [5]: > 100 µM
TGI [55]: > 100 µM
TGI [6]: > 100 µM
TGI [7]: > 100 µM
TGI [8]: > 100 µM
TGI [9]: > 100 µM
TGI [10]: > 100 µM
TGI [11]: 70.8 µM
TGI [12]: > 100 µM
TGI [13]: > 100 µM
TGI [14]: > 100 µM
TGI [15]: > 100 µM
TGI [16]: > 100 µM
TGI [17]: > 100 µM
TGI [18]: > 100 µM
TGI [19]: > 100 µM
TGI [20]: > 100 µM
TGI [21]: > 100 µM
TGI [22]: > 100 µM
TGI [24]: > 100 µM
TGI [25]: > 100 µM
TGI [26]: > 100 µM
TGI [27]: > 100 µM
TGI [28]: > 100 µM
TGI [29]: > 100 µM
TGI [30]: > 100 µM
TGI [31]: > 100 µM
TGI [32]: > 100 µM
TGI [33]: > 100 µM
TGI [34]: 79.8 µM
TGI [35]: 62.2 µM
TGI [36]: > 100 µM
TGI [37]: > 100 µM
TGI [39]: > 100 µM
TGI [40]: > 100 µM
TGI [41]: > 100 µM
TGI [42]: > 100 µM
TGI [56]: > 100 µM
TGI [43]: > 100 µM
TGI [44]: > 100 µM
TGI [45]: > 100 µM
TGI [47]: > 100 µM
TGI [48]: > 100 µM
TGI [49]: > 100 µM
TGI [50]: > 100 µM
TGI [52]: > 100 µM
TGI [53]: > 100 µM
TGI [57]: > 100 µM
TGI [58]: > 100 µM
